Consider 3 molecules from patent US20080255084A1, “Combination of Organic Compounds” (priority 2005, published 2008).

For experiment [1] the following is noted: in vivo; cited from earlier work.
The next experiment deals with T1, dog renin (Canis lupus familiaris, UniProt Q6DYE7).
T1 sequence (Q6DYE7 66-403): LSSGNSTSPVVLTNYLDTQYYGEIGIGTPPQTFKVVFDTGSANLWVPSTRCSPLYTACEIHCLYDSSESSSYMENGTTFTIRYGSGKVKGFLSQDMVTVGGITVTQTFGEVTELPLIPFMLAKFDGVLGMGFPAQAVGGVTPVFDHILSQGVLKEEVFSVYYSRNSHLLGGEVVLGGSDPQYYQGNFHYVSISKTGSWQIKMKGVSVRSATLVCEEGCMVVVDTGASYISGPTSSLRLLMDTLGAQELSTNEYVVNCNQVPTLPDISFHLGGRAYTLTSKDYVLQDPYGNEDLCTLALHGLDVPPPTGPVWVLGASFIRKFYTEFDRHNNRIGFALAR
In words: renin inhibitory potency against dog renin. The class given is biochemical. The conditions noted are these: compared with human renin.

For the next experiment, the system named is mouse renin. In words: renin inhibitory potency against mouse renin. The class given is biochemical. The settings on record: compared with human renin.
Another experiment deals with T2, rat renin (Rattus norvegicus, UniProt P08424).
T2 sequence (P08424 65-402): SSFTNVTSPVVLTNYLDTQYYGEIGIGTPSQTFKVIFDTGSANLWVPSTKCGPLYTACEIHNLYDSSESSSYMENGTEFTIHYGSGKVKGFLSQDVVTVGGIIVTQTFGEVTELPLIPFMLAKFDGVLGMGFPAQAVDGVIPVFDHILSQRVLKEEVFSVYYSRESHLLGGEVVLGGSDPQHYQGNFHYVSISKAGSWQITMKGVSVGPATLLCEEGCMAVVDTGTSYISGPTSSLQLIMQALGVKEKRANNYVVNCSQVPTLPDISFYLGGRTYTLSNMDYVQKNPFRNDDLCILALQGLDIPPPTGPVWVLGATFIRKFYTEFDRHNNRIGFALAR
Description: renin inhibitory potency against rat renin. The class given is biochemical. The settings on record: loss of potency against rat renin.

As to `CC1(C)O[C@@H]2[C@@H](CO[C@@]3(COS(N)(=O)=O)OC(C)(C)O[C@@H]23)O1` [Topiramate], the “effect on weight loss” value in experiment [1] is given as “increase weight loss”.
`COCCCOc1cc(C[C@@H](C[C@H](N)[C@@H](O)C[C@H](C(=O)NCC(C)(C)C(N)=O)C(C)C)C(C)C)ccc1OC` [aliskiren, 2(S),4 (S),5(S),7(S)—N-(3-amino-2,2-dimethyl-3-oxopropyl)-2,7-di(1-methylethyl)-4-hydroxy-5-amino-8-[4-methoxy-3-(3-methoxy-propoxy)phenyl]-octanamide]: on dog renin, the “potency against dog renin” value is “reasonable potency”. Besides, the “potency against mouse renin” value in the experiment on mouse renin is on record as “reasonable potency”. For the same molecule, the “weaker as a rat renin inhibitor” value at rat renin is on record as 1-2 orders of magnitude.
Regarding `NS(=O)(=O)Cc1noc2ccccc12` [Zonisamide], in experiment [1], the “effect on weight loss” value is reported as “lead to weight loss”.
